One assay concerns E. coli. Nature of the assay: Molecular phenotypic antimicrobial susceptibility test with direct PCR (no extraction DNA purification step). The class given is cell-based, Escherichia coli.
A further assay concerns pathogen of the specimen. Put plainly: Molecular phenotypic antimicrobial susceptibility test with direct PCR at various incubation timepoints (Table 7). The assay is classed as cell-based. Put shortly: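 This molecular phenotypic susceptibility test gauges whether antimicrobials prevent (sensitive) or allow (resistant) pathogen growth. The cultured specimen is adjusted to 0.5 McFarland and plated against antimicrobial solutions at breakpoint concentrations alongside drug-free controls. Following incubation, cells are lysed without extraction and amplified by semi-quantitative PCR; Ct values are compared against the control wells to assign results.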

Setting [1] is: E. coli isolate JJ1887, direct PCR, Ct at control (average) 12.832.
Where [2] appears, read: E. coli isolate JJ1887, direct PCR, at sensitive breakpoint.
Setting [3] is: E. coli isolate 1189, antibiotic incubation time 4 hours.
The mark [4] stands for this setting: E. coli isolate 1189, antibiotic incubation time 4 hours, control average Ct […].
Setting [5] is: E. coli isolate 1189, antibiotic incubation time 6 hours.
The mark [6] stands for this setting: E. coli isolate 1189, antibiotic incubation time 6 hours, control average Ct 16.992.
Where [7] appears, read: E. coli isolate 1189, antibiotic incubation time 8 hours.
Setting [8] is: E. coli isolate 1189, antibiotic incubation time 8 hours, control average Ct […].
Where [9] appears, read: E. coli isolate 1189, antibiotic incubation time 10 hours.
The mark [10] stands for this setting: E. coli isolate 1189, antibiotic incubation time 10 hours, control average Ct 15.995.
The mark [11] stands for this setting: E. coli isolate 1189, antibiotic incubation time 12 hours.
The mark [12] stands for this setting: E. coli isolate 1189, antibiotic incubation time 12 hours, control average Ct 15.495.
Setting [13] is: E. coli isolate 1189, antibiotic incubation time 14 hours.
Setting [14] is: E. coli isolate 1189, antibiotic incubation time 14 hours, control average Ct 15.826.
[15] abbreviates: E. coli isolate 1189, antibiotic incubation time 16 hours.
Setting [16] is: E. coli isolate 1189, antibiotic incubation time 16 hours, control average Ct 14.880.

Consider Trimethoprim/Sulfamethoxazole [TMP/SMX], for which the “Ct at Sensitive Breakpoint” value worked out at 13.414 in the assay on E. coli (setting [1]); 24.603 in the assay with pathogen of the specimen (setting [4]); 23.984 in the assay on pathogen of the specimen (setting [6]); 24.482 in the assay with pathogen of the specimen (setting [8]); 24.129 with pathogen of the specimen (setting [10]); 23.878 in the assay with pathogen of the specimen (setting [12]). Moreover, the “Ct at Sensitive Breakpoint” value is listed as 24.017 in the assay with pathogen of the specimen (setting [14]) and 23.552 with pathogen of the specimen (setting [16]). For the same compound, the “Molecular Antimicrobial Susceptibility Result” value in the assay on E. coli (setting [2]) is “Resistant”; in the assay with pathogen of the specimen (setting [3]) it was “Sensitive (Antimicrobial wells with pathogen load detected below the control wells (typically >2 cycle thresholds later) may be reported as Sensitive)”; with pathogen of the specimen (setting [5]) it was “Sensitive (Antimicrobial wells with pathogen load detected below the control wells (typically >2 cycle thresholds later) may be reported as Sensitive)”; in the assay with pathogen of the specimen (setting [7]), “Sensitive (Antimicrobial wells with pathogen load detected below the control wells (typically >2 cycle thresholds later) may be reported as Sensitive)”; in the assay on pathogen of the specimen (setting [9]), “Sensitive (Antimicrobial wells with pathogen load detected below the control wells (typically >2 cycle thresholds later) may be reported as Sensitive)”; in the assay with pathogen of the specimen (setting [11]), “Sensitive (Antimicrobial wells with pathogen load detected below the control wells (typically >2 cycle thresholds later) may be reported as Sensitive)”. Further, the “Molecular Antimicrobial Susceptibility Result” value in the assay with pathogen of the specimen (setting [13]) and in the assay on pathogen of the specimen (setting [15]) was “Sensitive (Antimicrobial wells with pathogen load detected below the control wells (typically >2 cycle thresholds later) may be reported as Sensitive)” in each case.
For the compound Gentamicin, the “Molecular Antimicrobial Susceptibility Result” value with E. coli (E. coli #1 - WDCM 00090 - 6.2×E3, specimen with <10,000 cells/mL, direct PCR after 16 hours of incubation) is listed as “Sensitive (Antimicrobial wells with pathogen load detected below the control wells (typically >2 cycle thresholds later) may be reported as Sensitive)”; with E. coli (E. coli #2 - WDCM 00090 - 6.2×E3, specimen with <10,000 cells/mL, direct PCR after 16 hours of incubation), “Sensitive (Antimicrobial wells with pathogen load detected below the control wells (typically >2 cycle thresholds later) may be reported as Sensitive)”; in the assay on E. coli (setting [2]), “Resistant”; in the assay with pathogen of the specimen (setting [3]), “Sensitive (Antimicrobial wells with pathogen load detected below the control wells (typically >2 cycle thresholds later) may be reported as Sensitive)”; in the assay with pathogen of the specimen (setting [5]), “Sensitive (Antimicrobial wells with pathogen load detected below the control wells (typically >2 cycle thresholds later) may be reported as Sensitive)”; with pathogen of the specimen (setting [7]), “Sensitive (Antimicrobial wells with pathogen load detected below the control wells (typically >2 cycle thresholds later) may be reported as Sensitive)”. Further, the “Molecular Antimicrobial Susceptibility Result” value with pathogen of the specimen (setting [9]), with pathogen of the specimen (setting [11]), with pathogen of the specimen (setting [13]) and in the assay on pathogen of the specimen (setting [15]) was “Sensitive (Antimicrobial wells with pathogen load detected below the control wells (typically >2 cycle thresholds later) may be reported as Sensitive)” in each case. Besides, the “Ct at Sensitive Breakpoint” value was determined as 28.57 in the assay with E. coli (E. coli #1 - WDCM 00090 - 6.2×E3, specimen with <10,000 cells/mL, direct PCR after 16 hours of incubation, Ct at control 13.787); 28.70 with E. coli (E. coli #2 - WDCM 00090 - 6.2×E3, specimen with <10,000 cells/mL, direct PCR after 16 hours of incubation, Ct at control 13.46); 12.308 in the assay on E. coli (setting [1]); 24.224 in the assay with pathogen of the specimen (setting [4]); 25.270 in the assay on pathogen of the specimen (setting [6]); 25.454 in the assay with pathogen of the specimen (setting [8]). The “Ct at Sensitive Breakpoint” value in the assay on pathogen of the specimen (setting [10]) was determined as 25.318; in the assay on pathogen of the specimen (setting [12]), 25.018; with pathogen of the specimen (setting [14]), 24.069; in the assay with pathogen of the specimen (setting [16]), 24.816.
On to `CO/N=C(\C(=O)N[C@@H]1C(=O)N2C(C(=O)[O-])=C(C[N+]3(C)CCCC3)CS[C@H]12)c1csc(N)n1` [Cefepime], for which the “Ct at Sensitive Breakpoint” value came to 12.796 in the assay on E. coli (setting [1]); 20.399 with pathogen of the specimen (setting [4]); 20.178 in the assay on pathogen of the specimen (setting [6]); 21.204 in the assay on pathogen of the specimen (setting [8]); 21.613 in the assay on pathogen of the specimen (setting [10]); 22.447 with pathogen of the specimen (setting [12]). The “Ct at Sensitive Breakpoint” value in the assay with pathogen of the specimen (setting [14]) is listed as 22.420; with pathogen of the specimen (setting [16]), 23.502. The “Molecular Antimicrobial Susceptibility Result” value in the assay on E. coli (setting [2]) was “Resistant”; in the assay on pathogen of the specimen (setting [3]) it was “Sensitive (Antimicrobial wells with pathogen load detected below the control wells (typically >2 cycle thresholds later) may be reported as Sensitive)”; in the assay on pathogen of the specimen (setting [5]), “Sensitive (Antimicrobial wells with pathogen load detected below the control wells (typically >2 cycle thresholds later) may be reported as Sensitive)”; with pathogen of the specimen (setting [7]), “Sensitive (Antimicrobial wells with pathogen load detected below the control wells (typically >2 cycle thresholds later) may be reported as Sensitive)”; in the assay with pathogen of the specimen (setting [9]) it was “Sensitive (Antimicrobial wells with pathogen load detected below the control wells (typically >2 cycle thresholds later) may be reported as Sensitive)”; in the assay with pathogen of the specimen (setting [11]), “Sensitive (Antimicrobial wells with pathogen load detected below the control wells (typically >2 cycle thresholds later) may be reported as Sensitive)”. Further, the “Molecular Antimicrobial Susceptibility Result” value in the assay on pathogen of the specimen (setting [13]) and in the assay on pathogen of the specimen (setting [15]) was “Sensitive (Antimicrobial wells with pathogen load detected below the control wells (typically >2 cycle thresholds later) may be reported as Sensitive)” throughout.
`C[C@H]1COc2c(N3CCN(C)CC3)c(F)cc3c(=O)c(C(=O)O)cn1c23` [Levofloxacin]: the “Ct at Sensitive Breakpoint” value came to 12.562 with E. coli (setting [1]); 27.130 with pathogen of the specimen (setting [4]); 26.759 in the assay on pathogen of the specimen (setting [6]); 27.068 in the assay on pathogen of the specimen (setting [8]); 27.170 in the assay with pathogen of the specimen (setting [10]); 26.835 in the assay with pathogen of the specimen (setting [12]). The “Ct at Sensitive Breakpoint” value in the assay with pathogen of the specimen (setting [14]) was found to be 27.545; with pathogen of the specimen (setting [16]) it was 27.791. For the same compound, the “Molecular Antimicrobial Susceptibility Result” value in the assay on E. coli (setting [2]) is “Resistant”; in the assay on pathogen of the specimen (setting [3]) it was “Sensitive (Antimicrobial wells with pathogen load detected below the control wells (typically >2 cycle thresholds later) may be reported as Sensitive)”; in the assay on pathogen of the specimen (setting [5]) it was “Sensitive (Antimicrobial wells with pathogen load detected below the control wells (typically >2 cycle thresholds later) may be reported as Sensitive)”; in the assay with pathogen of the specimen (setting [7]), “Sensitive (Antimicrobial wells with pathogen load detected below the control wells (typically >2 cycle thresholds later) may be reported as Sensitive)”; in the assay on pathogen of the specimen (setting [9]) it was “Sensitive (Antimicrobial wells with pathogen load detected below the control wells (typically >2 cycle thresholds later) may be reported as Sensitive)”; with pathogen of the specimen (setting [11]), “Sensitive (Antimicrobial wells with pathogen load detected below the control wells (typically >2 cycle thresholds later) may be reported as Sensitive)”. Further, the “Molecular Antimicrobial Susceptibility Result” value in the assay on pathogen of the specimen (setting [13]) and in the assay with pathogen of the specimen (setting [15]) was “Sensitive (Antimicrobial wells with pathogen load detected below the control wells (typically >2 cycle thresholds later) may be reported as Sensitive)” each time.

The values above are taken from US20250290117A1, “MOLECULAR PHENOTYPIC ANTIMICROBIAL SUSCEPTIBILITY TESTING” (priority 2024, published 2025).
